# Measurements published in paper PMC12010937, “Evaluation of FXR Activity in Pollutants Identified in Sewage Sludge and Subsequent in Vitro and in Vivo Characterization of Metabolic Effects of Triphenyl Phosphate” (Environmental Health Perspectives, 2025).
# Where “and” joins values, the source holds several entries; their conditions need not be identical. Equal entries are not always repeated.
# Legend:
# C57BL/6N mice = assay: Hepatic total bile acids (TBA colorimetric assay kit); assay type: in vivo; conditions: for Hepatic TBA: individual mice
# Experimental: Male C57BL/6N mice (8 wk of age) were purchased from Beijing Vital River Laboratory Inc. and acclimated to the environment for 2 wk before they were used for experiments. The environment was maintained at 22°C, in a 12-h light/dark cycle with 50%–60% relative humidity and fed standard chow diets. Because the male mice are more sensitive to metabolic disease than female mice and the estrous cycle of female mice may induce variability to the metabolic phenotypes,[50] only male mice were used in this study. Animals were randomly assigned to control or TPHP treatment groups (five mice per group). Mice were exposed to corn oil (control) purchased from Sigma-Aldrich (C8267) or TPHP (dissolved in corn oil) at 10mg/kg or 50mg/kg body weight (BW) by daily oral gavage for 35 d. The administered volume was 5mL/kg BW. The TPHP corn oil solutions for administration were prepared by dissolving the TPHP in corn oil, and the solutions were stored at −20°C and freshly prepared each week. BW was measured every other day during the dosing period. At the end of experiments, the mice were anesthetized with isoflurane, then blood was collected from the retro-orbital sinus via orbital puncture, and then the mice were euthanized by cervical dislocation. The liver was isolated, weighted, and divided into three fractions: one fraction was fixed with 4% neutral-buffered formalin for Oil Red staining; another fraction was frozen in liquid nitrogen and stored at −80°C for the BA targeted analysis, lipidomic analysis, and qPCR analysis; the remaining fraction was embedded with 3% carboxymethylcellulose (CMC) for MSI analysis. The ileum was also isolated, weighted, and stored at −80°C for the BA targeted analysis and qRT-PCR analysis. […]
# The TG level in the liver was determined using a triglyceride enzymatic assay kit (Applygen). […] The total BA level in the liver was determined using a Total Bile Acid (TBA) Colorimetric Assay Kit (Elabscience). […] Both the TG and TBA results were normalized by the protein concentration determined by bicinchoninic acid (BCA) method using a BCA kit (Applygen).
# [1] = system: FXR target genes (SHP, NTCP, CYP7A1) in HepG2 cells; assay: qPCR of FXR target genes in HepG2 cells; assay type: cell-based, human
# [2] = system: FXR, PXR and PPARγ target genes in liver; assay: qPCR of genes in mouse liver; assay type: in vivo, C57BL/6N mice
# Experimental: Male C57BL/6N mice (8 wk of age) were purchased from Beijing Vital River Laboratory Inc. and acclimated to the environment for 2 wk before they were used for experiments. The environment was maintained at 22°C, in a 12-h light/dark cycle with 50%–60% relative humidity and fed standard chow diets. Because the male mice are more sensitive to metabolic disease than female mice and the estrous cycle of female mice may induce variability to the metabolic phenotypes,[50] only male mice were used in this study. Animals were randomly assigned to control or TPHP treatment groups (five mice per group). Mice were exposed to corn oil (control) purchased from Sigma-Aldrich (C8267) or TPHP (dissolved in corn oil) at 10mg/kg or 50mg/kg body weight (BW) by daily oral gavage for 35 d. The administered volume was 5mL/kg BW. The TPHP corn oil solutions for administration were prepared by dissolving the TPHP in corn oil, and the solutions were stored at −20°C and freshly prepared each week. BW was measured every other day during the dosing period. At the end of experiments, the mice were anesthetized with isoflurane, then blood was collected from the retro-orbital sinus via orbital puncture, and then the mice were euthanized by cervical dislocation. The liver was isolated, weighted, and divided into three fractions: one fraction was fixed with 4% neutral-buffered formalin for Oil Red staining; another fraction was frozen in liquid nitrogen and stored at −80°C for the BA targeted analysis, lipidomic analysis, and qPCR analysis; the remaining fraction was embedded with 3% carboxymethylcellulose (CMC) for MSI analysis. The ileum was also isolated, weighted, and stored at −80°C for the BA targeted analysis and qRT-PCR analysis. Cecal contents were collected from the cecum of mice for the 16S rRNA gene sequencing analysis. Animal study protocols were approved by the Animal Care and Use Committee of Peking University (approval number: Urban-WanY-1).
# Total RNA was extracted from cells or mice tissues (liver and ileum) using the Total RNA kit (Tiangen Biotech), and concentration and quality of the RNA were determined using a SMA4000 Nanodrop spectrophotometer (Merinton). Then, the RNA was reverse transcribed into cDNA by HiScript III RT SuperMix for qPCR (Vazyme). In addition, qPCR was performed in the Mx3005P real-time PCR system (Agilent Technologies) with the ChamQ SYBR qPCR Master Mix Kit (Vazyme). Reactions were carried out for 5 min at 95°C, followed by 40 cycles of two-step PCR for 10 s at 95°C and 30 s at 60°C. The relative RNA expression levels of the target genes were normalized to GAPDH using the 2^−ΔΔCt method.
# [3] = 10 μM TPHP + 50 μM CDCA, replicates
compound,measurement,setting,value
"O=P(Oc1ccccc1)(Oc1ccccc1)Oc1ccccc1 [TPHP, triphenyl phosphate]",Increase of total BA concentration in the liver relative to the control group,"C57BL/6N mice; TPHP-H group, 35 d of exposure",2 fold
same,Hepatic TBA,C57BL/6N mice; TPHP-H: 50 mg/kg daily oral gavage 35 d,2.67 µmol/g and 2.92 µmol/g and 2.08 µmol/g
same,Hepatic TBA,C57BL/6N mice; TPHP-L: 10 mg/kg daily oral gavage 35 d,1.89 µmol/g and 1.55 µmol/g and 1.58 µmol/g
same,"Effect on CDCA-induced expression changes of FXR target genes (SHP, NTCP, CYP7A1), in words",[1],attenuated the CDCA-induced expression changes
same,Relative mRNA expression level of CYP7A1,[1]; [3],1.85 fold changes and 1.10 fold changes and 1.48 fold changes
same,Relative mRNA expression level of NTCP,[1]; [3],1.11 fold changes and 0.92 fold changes and 0.94 fold changes
same,Relative mRNA expression level of SHP,[1]; [3],1.02 fold changes and 1.19 fold changes and 1.08 fold changes
same,Relative mRNA expression of Acc1 in liver,"[2]; TPHP-H: 50 mg/kg, 35 d",1.30 fold changes and 1.85 fold changes and 1.75 fold changes
same,Relative mRNA expression of Acly in liver,"[2]; TPHP-H: 50 mg/kg, 35 d",1.31 fold changes and 1.49 fold changes and 1.68 fold changes
same,Relative mRNA expression of Bsep in liver,"[2]; TPHP-H: 50 mg/kg, 35 d",0.59 fold changes and 0.34 fold changes and 0.54 fold changes
same,Relative mRNA expression of Cd36 in liver,"[2]; TPHP-H: 50 mg/kg, 35 d",0.97 fold changes and 1.09 fold changes and 0.65 fold changes
same,Relative mRNA expression of Cpt1a in liver,"[2]; TPHP-H: 50 mg/kg, 35 d",0.75 fold changes and 0.89 fold changes and 1.31 fold changes
same,Relative mRNA expression of Cyp2b10 in liver,"[2]; TPHP-H: 50 mg/kg, 35 d",1.32 fold changes and 0.97 fold changes and 0.68 fold changes
same,Relative mRNA expression of Cyp3a11 in liver,"[2]; TPHP-H: 50 mg/kg, 35 d",0.93 fold changes and 0.74 fold changes and 0.82 fold changes
same,Relative mRNA expression of Cyp7a1 in liver,"[2]; TPHP-H: 50 mg/kg, 35 d",2.89 fold changes and 2.77 fold changes and 3.66 fold changes
same,Relative mRNA expression of Cyp7b1 in liver,"[2]; TPHP-H: 50 mg/kg, 35 d",1.54 fold changes and 0.80 fold changes and 0.81 fold changes
same,Relative mRNA expression of Cyp8b1 in liver,"[2]; TPHP-H: 50 mg/kg, 35 d",1.26 fold changes and 1.33 fold changes and 0.86 fold changes
same,Relative mRNA expression of Cyp27a1 in liver,"[2]; TPHP-H: 50 mg/kg, 35 d",0.93 fold changes and 1.23 fold changes and 1.03 fold changes
same,Relative mRNA expression of Dgat2 in liver,"[2]; TPHP-H: 50 mg/kg, 35 d",1.67 fold changes and 1.99 fold changes and 1.63 fold changes
same,Relative mRNA expression of Fae in liver,"[2]; TPHP-H: 50 mg/kg, 35 d",1.30 fold changes and 0.87 fold changes and 0.66 fold changes
same,Relative mRNA expression of Hmgcs2 in liver,"[2]; TPHP-H: 50 mg/kg, 35 d",0.85 fold changes and 0.69 fold changes and 1.21 fold changes
same,Relative mRNA expression of Mdr3 in liver,"[2]; TPHP-H: 50 mg/kg, 35 d",0.80 fold changes and 0.96 fold changes and 0.74 fold changes
same,Relative mRNA expression of Mrp2 in liver,"[2]; TPHP-H: 50 mg/kg, 35 d",0.83 fold changes and 0.55 fold changes and 0.76 fold changes
same,Relative mRNA expression of Mrp3 in liver,"[2]; TPHP-H: 50 mg/kg, 35 d",1.11 fold changes and 0.88 fold changes and 0.87 fold changes
same,Relative mRNA expression of Mrp4 in liver,"[2]; TPHP-H: 50 mg/kg, 35 d",0.96 fold changes and 0.80 fold changes and 0.67 fold changes
same,Relative mRNA expression of Ntcp in liver,"[2]; TPHP-H: 50 mg/kg, 35 d",1.19 fold changes and 1.58 fold changes and 1.51 fold changes
same,Relative mRNA expression of Scd1 in liver,"[2]; TPHP-H: 50 mg/kg, 35 d",0.43 fold changes and 0.64 fold changes and 0.58 fold changes
same,Relative mRNA expression of Srebp1c in liver,"[2]; TPHP-H: 50 mg/kg, 35 d",2.82 fold changes and 2.12 fold changes and 2.38 fold changes
same,Relative mRNA expression of Acc1 in liver,"[2]; TPHP-L: 10 mg/kg, 35 d",1.60 fold changes and 1.11 fold changes and 0.88 fold changes
same,Relative mRNA expression of Acly in liver,"[2]; TPHP-L: 10 mg/kg, 35 d",1.63 fold changes and 1.57 fold changes and 1.51 fold changes
same,Relative mRNA expression of Bsep in liver,"[2]; TPHP-L: 10 mg/kg, 35 d",0.72 fold changes and 0.48 fold changes and 0.41 fold changes
same,Relative mRNA expression of Cd36 in liver,"[2]; TPHP-L: 10 mg/kg, 35 d",1.18 fold changes and 0.78 fold changes and 1.04 fold changes
same,Relative mRNA expression of Cpt1a in liver,"[2]; TPHP-L: 10 mg/kg, 35 d",0.92 fold changes and 1.04 fold changes and 0.99 fold changes
same,Relative mRNA expression of Cyp3a11 in liver,"[2]; TPHP-L: 10 mg/kg, 35 d",1.21 fold changes and 0.78 fold changes and 0.67 fold changes
same,Relative mRNA expression of Cyp7b1 in liver,"[2]; TPHP-L: 10 mg/kg, 35 d",0.65 fold changes and 1.07 fold changes and 0.98 fold changes
same,Relative mRNA expression of Cyp8b1 in liver,"[2]; TPHP-L: 10 mg/kg, 35 d",1.44 fold changes and 1.13 fold changes and 0.80 fold changes
same,Relative mRNA expression of Cyp27a1 in liver,"[2]; TPHP-L: 10 mg/kg, 35 d",1.02 fold changes and 1.04 fold changes and 0.92 fold changes
same,Relative mRNA expression of Dgat2 in liver,"[2]; TPHP-L: 10 mg/kg, 35 d",1.22 fold changes and 1.92 fold changes and 1.34 fold changes
same,Relative mRNA expression of Fae in liver,"[2]; TPHP-L: 10 mg/kg, 35 d",1.41 fold changes and 0.87 fold changes and 0.80 fold changes
same,Relative mRNA expression of Hmgcs2 in liver,"[2]; TPHP-L: 10 mg/kg, 35 d",0.83 fold changes and 1.02 fold changes and 0.93 fold changes
same,Relative mRNA expression of Mdr3 in liver,"[2]; TPHP-L: 10 mg/kg, 35 d",1.09 fold changes and 0.85 fold changes and 0.67 fold changes
same,Relative mRNA expression of Mrp2 in liver,"[2]; TPHP-L: 10 mg/kg, 35 d",0.71 fold changes and 1.09 fold changes and 0.57 fold changes
same,Relative mRNA expression of Mrp3 in liver,"[2]; TPHP-L: 10 mg/kg, 35 d",0.90 fold changes and 0.72 fold changes and 0.89 fold changes
same,Relative mRNA expression of Mrp4 in liver,"[2]; TPHP-L: 10 mg/kg, 35 d",0.86 fold changes and 0.84 fold changes and 0.91 fold changes
same,Relative mRNA expression of Ntcp in liver,"[2]; TPHP-L: 10 mg/kg, 35 d",1.52 fold changes and 1.66 fold changes and 1.26 fold changes
same,Relative mRNA expression of Scd1 in liver,"[2]; TPHP-L: 10 mg/kg, 35 d",0.40 fold changes and 0.59 fold changes and 0.35 fold changes
same,Relative mRNA expression of Srebp1c in liver,"[2]; TPHP-L: 10 mg/kg, 35 d",2.35 fold changes and 1.89 fold changes and 2.01 fold changes
same,"Expression of FXR-regulated lipogenesis genes (Srebp1c, Dgat2, Acly, Acc1) in liver (in words)",[2]; TPHP-exposed mice,up-regulated
same,Expression of Scd1 in the liver (in words),[2]; TPHP-exposure groups,significantly lower
same,"Expression of PXR and PPARγ target genes in the liver, except Scd1 (in words)",[2]; after TPHP exposure,not significantly different
same,"Expression of Cyp7a1 in liver, higher than in control group",[2]; both TPHP-L and TPHP-H groups,approximately 2 folds
